Converted amounts (≈) assume the structure as drawn. The source made the active and inactive calls. No cut-off for these calls is given here.
Experiments:
[1] = target: Glucocorticoid receptor (Homo sapiens) (UniProt P04150); assay: Inhibition of human glucocorticoid receptor at 10 uM
[2] = target: Adrenergic receptor alpha-2 (Homo sapiens) (UniProt P08913+P18825+P18089); assay: Inhibition of alpha-2 receptor at 10 uM; assay type: protein assay
[3] = Aqueous solubility at pH 1; assay type: physicochemical; conditions: buffer
[4] = target: Muscarinic acetylcholine receptor (Homo sapiens) (UniProt P20309+P08173+P11229+P08172+P08912); assay: Inhibition of human M receptor at 10 uM; assay type: protein assay
[5] = target: Phospholipase A2 (Homo sapiens) (UniProt P04054); assay: Inhibition of PLA2 at 10 uM
[6] = Aqueous solubility in PBS at pH 7.4; assay type: physicochemical
[7] = target: Prostaglandin D2 receptor (Homo sapiens) (UniProt Q13258); assay: Inhibition of human DP receptor at 10 uM
[8] = target: T1, Prostaglandin D2 receptor 2 (Homo sapiens, UniProt Q9Y5Y4); assay: Antagonist activity against CRTH2 receptor measured as inhibition of PGD2-induced beta-arrestin translocation in HEK293 cells by BRET assay; assay type: functional, cell-based
T1 sequence (Q9Y5Y4 whole entry): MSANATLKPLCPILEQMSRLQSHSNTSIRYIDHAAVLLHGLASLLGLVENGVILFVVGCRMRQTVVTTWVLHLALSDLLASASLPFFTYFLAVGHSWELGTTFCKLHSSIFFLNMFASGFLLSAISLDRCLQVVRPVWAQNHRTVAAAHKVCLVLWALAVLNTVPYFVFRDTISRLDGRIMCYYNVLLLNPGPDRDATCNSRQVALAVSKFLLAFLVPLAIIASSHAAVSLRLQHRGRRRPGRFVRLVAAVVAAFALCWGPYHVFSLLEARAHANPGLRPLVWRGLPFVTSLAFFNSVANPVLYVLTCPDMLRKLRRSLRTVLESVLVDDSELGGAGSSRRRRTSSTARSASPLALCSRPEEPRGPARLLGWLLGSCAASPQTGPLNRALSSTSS

[9] = system: Mus musculus; assay: Inhibition of goblet cell hyperplasia in BALB/c mouse at 5 mg/kg, po relative to control; assay type: functional, organism-based; parameters: dose 5 mg/kg
[10] = target: Prostaglandin D2 receptor (Homo sapiens, UniProt Q13258); assay: Inhibition of DP1
[11] = target: Adenosine receptor A1 (Homo sapiens) (UniProt P30542); assay: Inhibition of human A1 receptor at 10 uM
[12] = target: Type-1 angiotensin II receptor (Homo sapiens) (UniProt P30556); assay: Inhibition of AT1
[13] = target: Melanocortin receptor 4 (Homo sapiens) (UniProt P32245); assay: Inhibition of human MC4 receptor at 10 uM
[14] = target: Endothelin-1 receptor (Homo sapiens) (UniProt P25101); assay: Inhibition of human ETA receptor at 10 uM
[15] = target: D(2) dopamine receptor (Homo sapiens) (UniProt P14416); assay: Inhibition of human D2S receptor at 10 uM
[16] = target: C5a anaphylatoxin chemotactic receptor 1 (Homo sapiens) (UniProt P21730); assay: Inhibition of human C5a receptor at 10 uM
[17] = target: Platelet-activating factor receptor (Homo sapiens) (UniProt P25105); assay: Inhibition of human PAF receptor at 10 uM
[18] = target: Type-2 angiotensin II receptor (Homo sapiens) (UniProt P50052); assay: Inhibition of AT2
[19] = target: Type-1 angiotensin II receptor (Homo sapiens) (UniProt P30556); assay: Inhibition of human AT1 receptor at 10 uM
[20] = target: Vasopressin V1a receptor (Homo sapiens) (UniProt P37288); assay: Inhibition of human V1a receptor at 10 uM
[21] = target: GABA-A receptor; anion channel (Homo sapiens) (UniProt P14867+P47870+P18507+P28472+P48169+Q99928+Q9UN88+P34903+O00591+O14764+Q8N1C3+P18505+P78334+P47869+P31644+Q16445); assay: Inhibition of central BZD receptor at 10 uM; assay type: protein-complex assay
[22] = system: Mus musculus; assay: Inhibition of peribronchial eosinophilia in BALB/c mouse at 30 mg/kg, po relative to control; assay type: functional
[23] = target: Glutamate [NMDA] receptor (Homo sapiens) (UniProt Q05586+Q12879+Q13224+O15399+O60391+Q14957+Q8TCU5); assay: Inhibition of human PCP receptor at 10 uM; assay type: protein-complex assay
[24] = target: Thromboxane A2 receptor (Homo sapiens) (UniProt P21731); assay: Inhibition of human TXA2 receptor at 10 uM
[25] = species on record: Homo sapiens; assay: Inhibition of human Y receptor at 10 uM
[26] = target: Gastric inhibitory polypeptide receptor (Homo sapiens) (UniProt P48546); assay: Inhibition of GIP receptor at 10 uM
[27] = target: Histamine H1 receptor (Homo sapiens) (UniProt P35367); assay: Inhibition of human H1 receptor at 10 uM
[28] = target: Polyunsaturated fatty acid lipoxygenase ALOX15 (Homo sapiens) (UniProt P16050); assay: Inhibition of 15-LO at 10 uM
[29] = target: D(1A) dopamine receptor (Homo sapiens) (UniProt P21728); assay: Inhibition of human D1 receptor at 10 uM
[30] = target: Cholecystokinin receptor type A (Homo sapiens) (UniProt P32238); assay: Inhibition of human CCKA receptor at 10 uM
[31] = target: Melanin-concentrating hormone receptor 1 (Homo sapiens) (UniProt Q99705); assay: Inhibition of human MCH1 receptor at 10 uM
[32] = target: T1, Prostaglandin D2 receptor 2; assay: Displacement of [3H]PGD2 from human CRTH2 receptor expressed in HEK293 cells; assay type: cell-based
[33] = target: Serotonin (5-HT) receptor (Homo sapiens) (UniProt P30939+P41595+Q13639+P28222+P46098+P08908+P28221+P28223+P28335+P28566+P34969+P50406+P47898+A5X5Y0+O95264+Q70Z44+Q8WXA8); assay: Inhibition of 5-HT receptor at 10 uM; assay type: protein assay
[34] = Permeability from apical to basolateral side of Caco-2 cells; assay type: ADME, cell-based; conditions: human, read-out: permeability
[35] = Inhibition of neuronal nicotinic receptor at 10 uM
[36] = target: Somatostatin receptor (Homo sapiens) (UniProt P35346+P30874+P31391+P30872+P32745); assay: Inhibition of sst receptor at 10 uM; assay type: protein assay
[37] = target: Opioid receptors; mu/kappa/delta (Homo sapiens) (UniProt P41145+P41143+P35372); assay: Inhibition of opiate receptor at 10 uM; assay type: protein assay
[38] = system: Mus musculus; assay: Inhibition of peribronchial eosinophilia in BALB/c mouse at 5 mg/kg, po relative to control; assay type: functional, organism-based; parameters: dose 5 mg/kg
[39] = target: Chemerin-like receptor 1 (Homo sapiens) (UniProt Q99788); assay: Inhibition of ChemR23 receptor at 10 uM
[40] = species on record: Rattus norvegicus; assay: Stability in rat liver S9 fraction; assay type: ADME
[41] = target: Sigma non-opioid intracellular receptor 1 (Homo sapiens) (UniProt Q99720); assay: Inhibition of sigma receptor at 10 uM
[42] = target: Type-2 angiotensin II receptor (Homo sapiens) (UniProt P50052); assay: Inhibition of human AT2 receptor at 10 uM

Type-1 angiotensin II receptor (Homo sapiens), sequence (P30556 whole entry): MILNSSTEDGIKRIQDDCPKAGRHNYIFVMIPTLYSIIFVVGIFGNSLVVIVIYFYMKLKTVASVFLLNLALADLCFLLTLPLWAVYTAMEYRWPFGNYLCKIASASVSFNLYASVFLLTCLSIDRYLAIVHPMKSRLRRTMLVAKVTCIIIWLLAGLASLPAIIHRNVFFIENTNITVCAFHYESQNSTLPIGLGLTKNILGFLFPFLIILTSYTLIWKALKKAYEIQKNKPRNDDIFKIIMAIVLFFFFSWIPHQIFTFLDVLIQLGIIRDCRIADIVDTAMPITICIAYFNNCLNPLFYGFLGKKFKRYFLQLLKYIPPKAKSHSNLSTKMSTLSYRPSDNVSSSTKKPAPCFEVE
Type-2 angiotensin II receptor (Homo sapiens), sequence (P50052 whole entry): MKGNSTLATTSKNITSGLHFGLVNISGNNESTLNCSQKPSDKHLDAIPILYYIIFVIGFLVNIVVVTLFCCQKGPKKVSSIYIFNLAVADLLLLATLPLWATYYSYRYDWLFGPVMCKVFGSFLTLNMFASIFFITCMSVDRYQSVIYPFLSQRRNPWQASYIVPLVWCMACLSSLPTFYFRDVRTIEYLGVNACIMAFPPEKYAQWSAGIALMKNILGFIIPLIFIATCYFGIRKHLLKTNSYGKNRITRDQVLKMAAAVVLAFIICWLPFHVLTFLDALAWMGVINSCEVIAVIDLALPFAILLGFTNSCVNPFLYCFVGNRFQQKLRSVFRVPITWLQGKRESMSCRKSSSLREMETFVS
Glucocorticoid receptor (Homo sapiens), sequence (P04150 whole entry): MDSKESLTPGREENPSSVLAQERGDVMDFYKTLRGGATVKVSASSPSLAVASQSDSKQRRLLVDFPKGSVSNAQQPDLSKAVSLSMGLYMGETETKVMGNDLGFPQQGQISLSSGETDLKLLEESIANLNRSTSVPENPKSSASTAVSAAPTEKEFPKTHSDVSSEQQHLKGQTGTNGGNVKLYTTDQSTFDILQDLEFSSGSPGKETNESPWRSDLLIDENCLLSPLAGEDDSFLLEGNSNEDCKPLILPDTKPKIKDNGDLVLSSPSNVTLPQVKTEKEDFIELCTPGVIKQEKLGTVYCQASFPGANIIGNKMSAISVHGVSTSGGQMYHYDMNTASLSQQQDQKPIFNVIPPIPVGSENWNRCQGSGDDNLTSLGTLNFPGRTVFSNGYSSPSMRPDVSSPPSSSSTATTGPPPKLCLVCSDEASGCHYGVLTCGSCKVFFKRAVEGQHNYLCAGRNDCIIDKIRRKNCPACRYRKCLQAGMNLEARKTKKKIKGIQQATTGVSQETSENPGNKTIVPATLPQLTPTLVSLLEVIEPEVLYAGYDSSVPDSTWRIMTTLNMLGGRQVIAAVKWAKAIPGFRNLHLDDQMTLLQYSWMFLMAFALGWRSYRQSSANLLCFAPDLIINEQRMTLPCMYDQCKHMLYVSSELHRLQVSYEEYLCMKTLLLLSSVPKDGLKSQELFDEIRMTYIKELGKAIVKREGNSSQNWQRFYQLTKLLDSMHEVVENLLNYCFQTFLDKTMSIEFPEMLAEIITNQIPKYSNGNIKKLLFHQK
Melanin-concentrating hormone receptor 1 (Homo sapiens), sequence (Q99705 whole entry): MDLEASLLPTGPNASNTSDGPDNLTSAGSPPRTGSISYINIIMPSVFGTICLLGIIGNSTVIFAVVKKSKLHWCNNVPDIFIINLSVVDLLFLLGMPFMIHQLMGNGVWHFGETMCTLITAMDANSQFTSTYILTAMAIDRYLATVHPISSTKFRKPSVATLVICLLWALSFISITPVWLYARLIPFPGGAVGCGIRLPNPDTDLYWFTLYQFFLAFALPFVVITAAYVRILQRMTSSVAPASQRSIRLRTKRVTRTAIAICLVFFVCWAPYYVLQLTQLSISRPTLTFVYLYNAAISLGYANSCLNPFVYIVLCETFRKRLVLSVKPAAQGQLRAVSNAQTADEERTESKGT
Adenosine receptor A1 (Homo sapiens), sequence (P30542 whole entry): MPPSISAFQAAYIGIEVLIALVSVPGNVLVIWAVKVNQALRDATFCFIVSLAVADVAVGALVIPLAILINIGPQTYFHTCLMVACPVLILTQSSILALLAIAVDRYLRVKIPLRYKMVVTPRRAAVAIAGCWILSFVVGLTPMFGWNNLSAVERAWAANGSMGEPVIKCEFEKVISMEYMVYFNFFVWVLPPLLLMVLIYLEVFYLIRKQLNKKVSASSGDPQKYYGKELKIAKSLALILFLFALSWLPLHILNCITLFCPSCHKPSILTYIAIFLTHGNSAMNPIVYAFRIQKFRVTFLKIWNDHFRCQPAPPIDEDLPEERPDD
Phospholipase A2 (Homo sapiens), sequence (P04054 23-148 limits assumed): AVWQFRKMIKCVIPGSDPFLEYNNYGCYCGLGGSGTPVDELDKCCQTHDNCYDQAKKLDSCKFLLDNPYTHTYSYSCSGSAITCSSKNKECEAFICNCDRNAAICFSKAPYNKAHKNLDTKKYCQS
D(2) dopamine receptor (Homo sapiens), sequence (P14416 whole entry): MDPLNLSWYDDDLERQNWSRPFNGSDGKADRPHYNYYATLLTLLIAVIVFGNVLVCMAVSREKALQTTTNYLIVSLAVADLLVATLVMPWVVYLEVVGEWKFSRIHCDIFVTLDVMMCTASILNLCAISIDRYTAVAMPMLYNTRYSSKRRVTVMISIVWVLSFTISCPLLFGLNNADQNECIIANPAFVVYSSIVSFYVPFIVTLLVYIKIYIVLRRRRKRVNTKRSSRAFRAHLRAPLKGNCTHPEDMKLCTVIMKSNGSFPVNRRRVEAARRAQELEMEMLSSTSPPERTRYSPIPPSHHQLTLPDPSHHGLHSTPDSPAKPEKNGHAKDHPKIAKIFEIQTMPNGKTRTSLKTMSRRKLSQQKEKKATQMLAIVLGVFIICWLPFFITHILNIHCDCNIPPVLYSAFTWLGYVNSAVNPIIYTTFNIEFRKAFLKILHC
Platelet-activating factor receptor (Homo sapiens), sequence (P25105 whole entry): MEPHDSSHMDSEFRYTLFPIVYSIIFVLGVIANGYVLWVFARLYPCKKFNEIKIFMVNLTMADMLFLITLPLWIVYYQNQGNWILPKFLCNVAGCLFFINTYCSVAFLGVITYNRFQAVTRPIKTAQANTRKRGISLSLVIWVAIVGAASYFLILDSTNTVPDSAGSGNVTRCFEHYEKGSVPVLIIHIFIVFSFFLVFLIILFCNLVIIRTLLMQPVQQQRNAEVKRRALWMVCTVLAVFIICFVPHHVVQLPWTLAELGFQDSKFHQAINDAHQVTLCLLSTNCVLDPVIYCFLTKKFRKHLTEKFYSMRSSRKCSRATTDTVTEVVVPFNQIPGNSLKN
Polyunsaturated fatty acid lipoxygenase ALOX15 (Homo sapiens), sequence (P16050 whole entry): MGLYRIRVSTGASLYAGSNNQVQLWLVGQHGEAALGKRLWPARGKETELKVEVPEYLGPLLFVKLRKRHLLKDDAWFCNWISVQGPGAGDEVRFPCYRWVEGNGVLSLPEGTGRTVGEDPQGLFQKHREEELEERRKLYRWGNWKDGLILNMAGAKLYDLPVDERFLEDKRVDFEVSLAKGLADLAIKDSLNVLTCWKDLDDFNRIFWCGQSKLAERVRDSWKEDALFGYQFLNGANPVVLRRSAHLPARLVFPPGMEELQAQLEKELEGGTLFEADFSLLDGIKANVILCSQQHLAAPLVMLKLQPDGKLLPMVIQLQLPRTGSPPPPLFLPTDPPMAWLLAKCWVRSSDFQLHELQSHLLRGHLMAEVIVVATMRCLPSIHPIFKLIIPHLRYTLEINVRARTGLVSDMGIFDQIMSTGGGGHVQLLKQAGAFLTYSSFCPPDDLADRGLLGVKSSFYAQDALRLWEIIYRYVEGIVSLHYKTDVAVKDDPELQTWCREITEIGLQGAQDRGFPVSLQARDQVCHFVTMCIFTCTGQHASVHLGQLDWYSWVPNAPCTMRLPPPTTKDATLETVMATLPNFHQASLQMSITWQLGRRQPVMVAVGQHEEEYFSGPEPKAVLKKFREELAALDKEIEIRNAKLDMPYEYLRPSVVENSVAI
Prostaglandin D2 receptor (Homo sapiens), sequence (Q13258 whole entry): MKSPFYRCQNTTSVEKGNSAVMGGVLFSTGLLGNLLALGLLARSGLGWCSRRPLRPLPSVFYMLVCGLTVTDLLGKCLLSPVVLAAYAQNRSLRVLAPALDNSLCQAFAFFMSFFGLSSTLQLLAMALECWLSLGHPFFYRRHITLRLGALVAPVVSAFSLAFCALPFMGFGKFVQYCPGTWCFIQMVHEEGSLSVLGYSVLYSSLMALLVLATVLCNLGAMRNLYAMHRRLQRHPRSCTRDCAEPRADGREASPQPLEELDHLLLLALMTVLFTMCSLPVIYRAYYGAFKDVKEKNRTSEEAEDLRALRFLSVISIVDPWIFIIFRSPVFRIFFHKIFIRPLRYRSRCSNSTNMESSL
Prostaglandin D2 receptor, sequence (Q13258 whole entry): as above
Gastric inhibitory polypeptide receptor (Homo sapiens), sequence (P48546 whole entry): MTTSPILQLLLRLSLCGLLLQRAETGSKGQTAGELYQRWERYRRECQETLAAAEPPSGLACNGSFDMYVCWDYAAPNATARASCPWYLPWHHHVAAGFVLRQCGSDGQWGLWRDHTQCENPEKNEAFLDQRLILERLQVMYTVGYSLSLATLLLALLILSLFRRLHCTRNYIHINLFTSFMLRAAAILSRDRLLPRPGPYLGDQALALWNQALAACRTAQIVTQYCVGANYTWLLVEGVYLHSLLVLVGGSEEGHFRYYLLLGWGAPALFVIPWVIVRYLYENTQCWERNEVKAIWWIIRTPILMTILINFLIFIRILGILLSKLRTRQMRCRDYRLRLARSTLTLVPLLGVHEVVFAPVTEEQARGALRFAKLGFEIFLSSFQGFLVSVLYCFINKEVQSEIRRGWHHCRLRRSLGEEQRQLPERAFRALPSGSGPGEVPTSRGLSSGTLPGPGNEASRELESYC
Sigma non-opioid intracellular receptor 1 (Homo sapiens), sequence (Q99720 whole entry): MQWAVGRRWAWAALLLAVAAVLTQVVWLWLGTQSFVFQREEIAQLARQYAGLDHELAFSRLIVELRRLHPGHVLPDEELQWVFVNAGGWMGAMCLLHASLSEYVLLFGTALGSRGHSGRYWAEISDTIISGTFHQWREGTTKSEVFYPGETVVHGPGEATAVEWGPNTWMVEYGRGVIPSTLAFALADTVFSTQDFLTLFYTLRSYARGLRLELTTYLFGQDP

- inhibition [1]: < 30%
- inhibition [2]: < 30%
- solubility [3]: 80 µM (≈ 32.1 µg/mL)
- inhibition [4]: < 30%
- inhibition [5]: < 20%
- solubility [6]: 200 µM (≈ 80.2 µg/mL)
- inhibition [7]: < 30%
- IC50 [8]: 24 nM
- IC50 [10]: > 100000 nM
- inhibition [11]: < 30%
- Activity [12]: inactive
- inhibition [13]: < 30%
- inhibition [14]: < 30%
- inhibition [15]: < 30%
- inhibition [17]: < 30%
- Activity [18]: inactive
- inhibition [19]: < 30%
- inhibition [20]: < 30%
- inhibition [21]: < 30%
- inhibition [23]: < 30%
- inhibition [24]: < 30%
- inhibition [25]: < 30%
- inhibition [26]: < 30%
- inhibition [27]: < 30%
- inhibition [28]: < 20%
- inhibition [29]: < 30%
- inhibition [30]: < 30%
- inhibition [31]: < 30%
- IC50 [32]: 1.5 nM
- inhibition [33]: < 30%
- Papp A→B [34]: 8.7 ×10⁻⁶ cm/s
- inhibition [35]: < 30%
- inhibition [36]: < 30%
- inhibition [37]: < 30%
- inhibition [39]: < 30%
- Stability [40]: 92%
- inhibition [41]: < 30%
- inhibition [42]: < 30%
SMILES: O=C(O)COc1ccc(Br)cc1C(=O)c1cnn(-c2ccccc2)c1
- Activity [9]: Active
- inhibition [16]: < 30%
- inhibition in vivo at 30 mg/kg [22]: 62%
- Activity [38]: Active

Source: ChEMBL document CHEMBL1137324, “Novel selective orally active CRTH2 antagonists for allergic inflammation developed from in silico derived hits” (J Med Chem, 2006)
